The source of these data is publication PMC11243625, “Synthesis, Docking, and Machine Learning Studies of Some Novel Quinolinesulfonamides–Triazole Hybrids with Anticancer Activity” (Molecules, 2024).

A word on the IC50: it is the concentration needed to halve the response being measured. As usually defined, the melting point is the temperature, or range, at which the solid turns liquid.

For one series, the system named is Caco-2. Put plainly: WST-1 test, colon cancer cells. The format is cell-based, human. The method, then:
Hybrids 4–14 were tested as anticancer agents against four human cancer cell lines: colon cancer (Caco-2), glioblastoma (SNB-19), lung cancer (A549), ovarian cancer (SKOV-3), and normal human dermal fibroblasts (NHDFs).
(§1) Cell cultures were performed in 96-well plates (Nunc Thermo Fisher Scientific, Waltham, MA, USA). Cells were seeded at 5 × 10^4/well and incubated for 24 h (at 37 °C, 5% CO2, and constant humidity). The medium was replaced with fresh with the addition of test compounds at a concentration of 0.1–100 µg/mL of DMSO and incubated again for another 72 h. After this time, the WST-1 test (Roche Molecular Biochemicals, Mannheim, Germany) was performed to assess the metabolic activity of the cells. Absorbance was measured at λ = 450 nm using a UVM340 microplate reader (Biogenet, Józefów, Poland). Results are expressed as the mean value of at least three independent experiments performed in triplicate.
A general note: Formazan colour is commonly taken as a measure of viable cells.

The next series concerns NHDF. Put plainly: WST-1 test, normal human dermal fibroblasts. The format is cell-based. As to conditions: 72 h, WST-1, normal cells; for IC50: Homo sapiens, NHDF. The method, then: (§2) Hybrids 4–14 were tested as anticancer agents against four human cancer cell lines: colon cancer (Caco-2), glioblastoma (SNB-19), lung cancer (A549), ovarian cancer (SKOV-3), and normal human dermal fibroblasts (NHDFs). Cisplatin was used as the reference substance. The results are presented as the compound concentration of the compound (μM) that inhibits the growth of 50% of cancer cells compared to control cells (IC50). A negative value (Neg) means that the compound concentration of the tested hybrids was greater than 500 µM. […] It is generated only by a weak van der Waals interaction with Arg84. […] There is also a visible difference in activity depending on the type of group present on the triazole ring (substituent C in Figure 2). The results obtained indicate that hybrids containing aromatic systems as a C substituent in their structure, especially another quinoline molecule (compounds 9 and 10), have high activity.
as §1

For the next series, the system named is SKOV-3. The series is described as follows: WST-1 test, ovarian cancer cells. As to conditions: Homo sapiens, SK-OV-3, 72 h. The format is cell-based, human. Here is the method:
as §2, §1

A further series deals with SNB-19. The series is described as follows: WST-1 test, glioblastoma cells. The format is cell-based, human. The method, then: as §2, §1
The test system of series [1] is A549. Details: method as in doi:10.1016/j.arabjc.2016.10.009. The settings on record: values marked *; read-out: IC50 A-549; cited from earlier work.
The next series relates to ROCK1. The settings on record: read-out: IC50 for ROCK1; cited from earlier work.
In a further series the test system is HCC. As to conditions: Figure 1; cited from earlier work.
Series [2] deals with A549. Put plainly: WST-1 test, lung cancer cells. The format is cell-based, human. The settings on record: Homo sapiens, A549, 72 h, read-out: IC50 A-549. Here is the method:
as §2, §1

Structures are written as SMILES. Values after ≈ are worked out from the molar mass of the structure shown. Read-outs that look alike come from different tables or passages of the source.

Take `C=C(Cn1cc(CN(C)S(=O)(=O)c2cccc3cccnc23)nn1)[C@@H]1CC[C@]2(COC(C)=O)CC[C@]3(C)[C@H](CC[C@@H]4[C@@]5(C)CC[C@H](OC(C)=O)C(C)(C)[C@@H]5CC[C@]43C)[C@@H]12` [Compound 14b, 8-N-methyl-N-({1-[3β, 28-diacetoxylup-20(29)-en-30-yl]-1H-1,2,3-triazol-4-yl}methyl)-quinolinesulfonamide]: the IC50 with Caco-2 (Homo sapiens, Caco-2, 72 h) is 18.2 µM; in the series on NHDF, more than 500 µM; with SKOV-3 it was 1.09 µM; in the series on SNB-19 (Homo sapiens, SNB-19, 72 h) it was 9.26 µM; in the series with A549 [1] it was more than 500 µM.
On to `CCCCn1cc(CNS(=O)(=O)c2cccc3cccnc23)nn1` [Compound 12a, 8-N-{[1-(1-butyl)-1H-1,2,3-triazol-4-yl]methyl}quinolinesulfonamide], for which the IC50 in the series on Caco-2 (Homo sapiens, Caco-2, 72 h) was 0.38 µM; with NHDF it was more than 500 µM; in the series with SKOV-3, 53.9 µM; in the series with SNB-19 (Homo sapiens, SNB-19, 72 h), 0.44 µM; in the series on A549 [1], more than 500 µM.
Turning to `O=S(=O)(c1cccc2cnccc12)N1CCCNCC1` [Fasudil], in the series with ROCK1, the IC50 is […]. For the same molecule, the “IC50 HCC” value with HCC was 0.04 µg/mL (≈ 0.137 µM).
`CCOC(=O)CCn1cc(CNS(=O)(=O)c2cccc3cccnc23)nn1` [Compound 13a, Ethyl 3-{[4-(8-sulfamoylquinolyl)methyl]-1H-1,2,3-triazol-1-yl}propanoate]: the IC50 was 0.32 µM in the series on Caco-2 (Homo sapiens, Caco-2, 72 h); 223 µM in the series with NHDF; 64.6 µM in the series with SKOV-3; 0.39 µM with SNB-19 (72 h); not above 0.4 µM in the series with SNB-19 (Homo sapiens, SNB-19, 72 h); more than 500 µM with A549 [1].
Consider `O=S(=O)(NCc1cn(-c2ccnc3cc(Cl)ccc23)nn1)c1cccc2cccnc12` [Compound 9a, 8-N-{[1-(7-chloroquinolin-4-yl)-1H-1,2,3-triazol-4-yl]methyl}quinolinesulfonamide], for which the half-inhibitory concentration (IC50) in the series with Caco-2 (Homo sapiens, Caco-2, 72 h) is 18 µM; in the series with NHDF it was more than 500 µM; in the series on SKOV-3, 108 µM; in the series with SNB-19 (Homo sapiens, SNB-19, 72 h), 62.4 µM; in the series with A549 [1], more than 500 µM.
In the case of `CN(Cc1cn(-c2ccnc3c(Br)cccc23)nn1)S(=O)(=O)c1cccc2cccnc12` [Compound 10b, 8-N-Methyl-N-{[1-(8-bromoquinolin-4-yl)-1H-1,2,3-triazol-4-yl]methyl}quinolinesulfonamide], the melting point is 206 to 207 °C. The IC50 with Caco-2 (72 h) was 0.3 µM. In addition, the IC50 in the series on Caco-2 (Homo sapiens, Caco-2, 72 h) was not below 0.3 µM. In addition, in the series on NHDF, the “IC50 NHDF” value is given as “have activity against normal cells” and the IC50 stood at 26.2 µM. For the same molecule, the IC50 in the series on A549 [2] was 1.77 µM. Moreover, the IC50 in the series with SKOV-3 amounted to 24.7 µM. In the series on SNB-19 (72 h), this molecule came in with an IC50 of 0.3 µM. Moreover, the IC50 with SNB-19 (Homo sapiens, SNB-19, 72 h) is not above 0.4 µM.
`CCCCn1cc(CN(C)S(=O)(=O)c2cccc3cccnc23)nn1` [Compound 12b, 8-N-Methyl-N-{[1-(1-butyl)-1H-1,2,3-triazol-4-yl]methyl}quinolinesulfonamide] had a melting point of 74 to 75 °C. Also, in the series on Caco-2 (Homo sapiens, Caco-2, 72 h), the IC50 was 1.29 µM. In the series with NHDF, half-maximal inhibition (IC50) required 242 µM. Moreover, in the series with A549 [2], the IC50 is 189 µM. This molecule gave an IC50 with SKOV-3 of 80.4 µM. In the series with SNB-19 (Homo sapiens, SNB-19, 72 h), this molecule showed an IC50 of 63.6 µM.
